Results on one substance are retold here after US9023821B2, “Use of MicroRNA for treating diseases associated with a dysfunction of the cilia in multiciliated epithelial cells” (Centre National de la Recherche Scientifique, priority 2009, dated 2015).

For data set [1], the system named is human airway epithelial cells (HAECs). Description: Agilent miRNA chips, miRNA expression at four stages of differentiation of HAECs. In short, it runs like this:
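Expression was profiled on Human miRNA Microarray v2 chips covering 866 human and 89 human viral miRNAs from miRBase v12.0. Labelled HAEC RNA came from the same patients used for sequencing and was hybridized per kit protocol. Chip and sequencing results were compared.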

The subject of data set [2] is basal cells and pyramidal cells of the airway epithelium. Description: miRNA expression in sorted basal cells versus pyramidal cells (ciliated + secretory), HTS and Agilent chips. Also noted: species or system human. In short, it runs like this:
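Epithelium dissociated from nasal polyps is held 30 min in PBS-BSA-EDTA, then labelled 20 min at 4° C for CD151 and tissue factor. After DAPI staining, live single cells are sorted into marker-double-positive and double-negative fractions, and sort purity and identity are verified. Total RNA then undergoes miRNA profiling on arrays or by sequencing.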

Data set [3] deals with human airway epithelial cells (HAECs). Description: High-throughput sequencing (HTS) of miRNAs at four stages of differentiation of HAECs. Summed up: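 Small-RNA libraries from differentiating HAECs (ALI-D0 to ALI-WD) were built by ligation-based SOLiD chemistry, size-selected and sequenced. Strand counts were normalized per million reads, converted to percentage abundance, and filtered on adjusted P-value below 0.05.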

As for “hsa-let-7f: human miRNA, SEQ ID No. 161 (UGAGGUAGUAGAUUGUAUAGUU; expressed or natural sequence; listed as Homo sapiens)”, the “Modulation (ratio of the level of intensity of expression in log2 in two stages of differentiation) measured with the Agilent chips, D7 − D0” value in data set [1] (D7 − D0, Table VI) stood at 1.63 log2. The “Modulation (ratio of the level of intensity of expression in log2 at two stages of differentiation), FC − D7” value in data set [1] (FC − D7, Agilent miRNA chips, Table V) is reported as −0.73 log2. The “Modulation (ratio of the level of intensity of expression in log2 in two stages of differentiation) measured with the Agilent chips, FC − D7” value in data set [1] (FC − D7, Table VI) is reported as −0.73 log2. Further, the “Modulation (ratio of the level of intensity of expression in log2 in two stages of differentiation) measured with the Agilent chips, WD − D0” value in data set [1] (WD − D0, Table VI) stood at 1.08 log2. The “Modulation (ratio of the level of intensity of expression in log2 at two stages of differentiation), WD − FC” value in data set [1] (WD − FC, Agilent miRNA chips, Table V) worked out at 0.17 log2. The “Modulation (ratio of the level of intensity of expression in log2 in two stages of differentiation) measured with the Agilent chips, WD − FC” value in data set [1] (WD − FC, Table VI) is given as 0.17 log2. The “Level of intensity of expression in log2 measured with the Agilent chips, D0” value in data set [1] (stage D0, Table VI) is 11.11 log2. The “Level of intensity of expression in log2 measured with the Agilent chips, D7” value in data set [1] (stage D7, Table VI) is recorded as 12.75 log2. In data set [1] (stage FC, Table VI), the “Level of intensity of expression in log2 measured with the Agilent chips, FC” value was found to be 12.01 log2. Besides, the “Level of intensity of expression in log2 measured with the Agilent chips, WD” value in data set [1] (stage WD, Table VI) is 12.19 log2. The “Modulation of expression of the miRNAs in pyramidal cells (323(−)) relative to basal cells 323(+)” value in data set [2] (HTS and Agilent chips) is recorded as −0.94. Further, the “Intensity of the level of expression in log2 in basal cells (323(+))” value in data set [2] (basal cells) is 10.82 log2. For the same substance, the “Intensity of the level of expression in log2 in pyramidal cells (323(−))” value in data set [2] (pyramidal cells (ciliated + secretory)) was 9.88 log2. Further, in data set [3] (D7 − D0, Table VI), the “Modulation (ratio of the level of intensity of expression in log2 in two stages of differentiation) measured by high-throughput sequencing, D7 − D0” value came out at 0.22 log2. Also, in data set [3] (FC − D7, Table VI), the “Modulation (ratio of the level of intensity of expression in log2 in two stages of differentiation) measured by high-throughput sequencing, FC − D7” value was −0.56 log2. Further, the “Modulation (ratio of the level of intensity of expression in log2 in two stages of differentiation) measured by high-throughput sequencing, WD − D0” value in data set [3] (WD − D0, Table VI) came to 0.11 log2. Also, the “Modulation (ratio of the level of intensity of expression in log2 in two stages of differentiation) measured by high-throughput sequencing, WD − FC” value in data set [3] (WD − FC, Table VI) was determined as 0.45 log2. The “Level of intensity of expression in log2 At the differentiated stage (WD) measured in HTS” value in data set [3] (healthy human airway epithelial tissue, stage WD) was found to be 5.35 log2. Further, the “Level of intensity of expression in log2 measured by high-throughput sequencing, D0” value in data set [3] (stage D0, Table VI) is reported as 5.24 log2. The “Level of intensity of expression in log2 measured by high-throughput sequencing, D7” value in data set [3] (stage D7, Table VI) is given as 5.46 log2. In addition, the “Level of intensity of expression in log2 measured by high-throughput sequencing, FC” value in data set [3] (stage FC, Table VI) is 4.90 log2. Besides, the “Level of intensity of expression in log2 measured by high-throughput sequencing, WD” value in data set [3] (stage WD, Table VI) came to 5.35 log2.
